{"source": "ChEMBL document CHEMBL1143682", "about": "“Investigation into the P3 binding domain of m-calpain using photoswitchable diazo- and triazene-dipeptide aldehydes: new anticataract agents” (J Med Chem, 2007)", "experiment": "Inhibition of sheep M-calpain by fluorescence based assay", "design": "species or system Ovis aries"}
{"smiles": "CC(C)[C@H](NC(=O)c1ccc(/N=N/c2ccccc2)cc1)C(=O)N[C@H](C=O)Cc1ccccc1", "values": [{"measurement": "IC50", "result": 35, "unit": "nM"}]}
{"smiles": "CC(C)[C@H](NC(=O)c1cccc(/N=N/c2ccccc2)c1)C(=O)N[C@H](C=O)Cc1ccccc1", "values": [{"measurement": "IC50", "result": 170, "unit": "nM"}]}
